Data reported in ChEMBL document CHEMBL1201862, “PubChem BioAssay data set” (2004).
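Compound exposure: 48 hours, 5 concentrations, 96-well plates. The concentration for 50% growth inhibition is given as GI50.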 Active and inactive are the calls of the source. Rule as the data show it: active = GI50 up to about 1.1 µM and inactive = higher.

Assays:
Test in all cases: NCI anticancer screen, dose series, 48 h
CAKI-1 = test system: CAKI-1
KM12 = test system: KM12
ACHN = test system: ACHN
M14 = test system: M14
NCI-H460 = test system: NCI-H460
KM-20L2 = test system: KM-20L2
MOLT-4 = test system: MOLT-4
SNB-19 = test system: SNB-19
SK-MEL-5 = test system: SK-MEL-5
SN12C = test system: SN12C
UACC-257 = test system: UACC-257
IGROV-1 = test system: IGROV-1
NCI-H226 = test system: NCI-H226
HL-60 = test system: HL-60
HOP-62 = test system: HOP-62
DMS-114 = test system: DMS-114
SF-295 = test system: SF-295
SK-OV-3 = test system: SK-OV-3
UACC-62 = test system: UACC-62
A498 = test system: A498
UO-31 = test system: UO-31
CCRF-CEM = test system: CCRF-CEM
OVCAR-5 = test system: OVCAR-5
SF-539 = test system: SF-539
HT-29 = test system: HT-29
NCI-H522 = test system: NCI-H522
COLO 205 = test system: COLO 205
SK-MEL-2 = test system: SK-MEL-2
LXFL 529 = test system: LXFL 529
LOX IMVI = test system: LOX IMVI
HCT-15 = test system: HCT-15
K562 = test system: K562
786-0 = test system: 786-0
OVCAR-4 = test system: OVCAR-4
SW-620 = test system: SW-620
HCT-116 = test system: HCT-116
DLD-1 = test system: DLD-1
OVCAR-3 = test system: OVCAR-3
SF-268 = test system: SF-268
HOP-92 = test system: HOP-92
Malme-3M = test system: Malme-3M
SNB-75 = test system: SNB-75
A549 = test system: A549
XF498 = test system: XF498
HCC 2998 = test system: HCC 2998
M19-MEL = test system: M19-MEL
OVCAR-8 = test system: OVCAR-8
DMS-273 = test system: DMS-273
SK-MEL-28 = test system: SK-MEL-28
RPMI-8226 = test system: RPMI-8226
U-251 = test system: U-251
SNB-78 = test system: SNB-78
TK-10 = test system: TK-10
NCI-H23 = test system: NCI-H23
RXF 393 = test system: RXF 393
SR = test system: SR

CC12CCC(=O)N1[C@@H](c1ccccc1)[C@@H](c1ccccc1)O2 (some centres undefined)
GI50 (CAKI-1): > 100 µM (inactive) | GI50 (KM12): > 100 µM (inactive) | GI50 (ACHN): > 100 µM (inactive) | GI50 (M14): > 100 µM (inactive) | GI50 (NCI-H460): > 100 µM (inactive) | GI50 (KM-20L2): > 100 µM (inactive) | GI50 (MOLT-4): > 100 µM (inactive) | GI50 (SNB-19): > 100 µM (inactive) | GI50 (SK-MEL-5): > 100 µM (inactive) | GI50 (SN12C): > 100 µM (inactive) | GI50 (UACC-257): > 100 µM (inactive) | GI50 (IGROV-1): > 100 µM (inactive) | GI50 (NCI-H226): > 100 µM (inactive) | GI50 (HL-60): > 100 µM (inactive) | GI50 (HOP-62): > 100 µM (inactive) | GI50 (DMS-114): > 100 µM (inactive) | GI50 (SF-295): > 100 µM (inactive) | GI50 (SK-OV-3): 68.9 µM (inactive) | GI50 (UACC-62): 42.5 µM (inactive) | GI50 (A498): > 100 µM (inactive) | GI50 (UO-31): > 100 µM (inactive) | GI50 (CCRF-CEM): > 100 µM (inactive) | GI50 (OVCAR-5): > 100 µM (inactive) | GI50 (SF-539): > 100 µM (inactive) | GI50 (HT-29): > 100 µM (inactive) | GI50 (NCI-H522): > 100 µM (inactive) | GI50 (COLO 205): > 100 µM (inactive) | GI50 (SK-MEL-2): > 100 µM (inactive) | GI50 (LXFL 529): > 100 µM (inactive) | GI50 (LOX IMVI): > 100 µM (inactive) | GI50 (HCT-15): > 100 µM | GI50 (K562): > 100 µM (inactive) | GI50 (786-0): > 100 µM (inactive) | GI50 (OVCAR-4): > 100 µM (inactive) | GI50 (SW-620): > 100 µM (inactive) | GI50 (HCT-116): > 100 µM (inactive) | GI50 (DLD-1): 44 µM (inactive) | GI50 (OVCAR-3): > 100 µM (inactive) | GI50 (SF-268): > 100 µM (inactive) | GI50 (HOP-92): 84.7 µM (inactive) | GI50 (Malme-3M): > 100 µM (inactive) | GI50 (SNB-75): > 100 µM (inactive) | GI50 (A549): > 100 µM (inactive) | GI50 (XF498): > 100 µM (inactive) | GI50 (HCC 2998): > 100 µM (inactive) | GI50 (M19-MEL): > 100 µM (inactive) | GI50 (OVCAR-8): > 100 µM (inactive)

O=NN1CCN=C1c1ccc([N+](=O)[O-])cc1
GI50 (CAKI-1): > 100 µM (inactive) | GI50 (DMS-273): > 100 µM (inactive) | GI50 (KM12): > 100 µM (inactive) | GI50 (ACHN): > 100 µM (inactive) | GI50 (M14): > 100 µM (inactive) | GI50 (NCI-H460): > 100 µM (inactive) | GI50 (KM-20L2): > 100 µM (inactive) | GI50 (MOLT-4): > 100 µM (inactive) | GI50 (SNB-19): > 100 µM (inactive) | GI50 (SK-MEL-5): > 100 µM (inactive) | GI50 (SN12C): > 100 µM (inactive) | GI50 (UACC-257): > 100 µM (inactive) | GI50 (IGROV-1): > 100 µM (inactive) | GI50 (NCI-H226): > 100 µM (inactive) | GI50 (HL-60): > 100 µM (inactive) | GI50 (HOP-62): > 100 µM (inactive) | GI50 (SK-MEL-28): > 100 µM (inactive) | GI50 (SF-295): > 100 µM (inactive) | GI50 (RPMI-8226): > 100 µM (inactive) | GI50 (SK-OV-3): > 100 µM (inactive) | GI50 (U-251): > 100 µM (inactive) | GI50 (UACC-62): > 100 µM (inactive) | GI50 (UO-31): 66.2 µM (inactive) | GI50 (OVCAR-5): > 100 µM (inactive) | GI50 (SF-539): > 100 µM (inactive) | GI50 (HT-29): > 100 µM (inactive) | GI50 (NCI-H522): > 100 µM (inactive) | GI50 (COLO 205): > 100 µM (inactive) | GI50 (LXFL 529): > 100 µM (inactive) | GI50 (SNB-78): > 100 µM (inactive) | GI50 (LOX IMVI): > 100 µM (inactive) | GI50 (HCT-15): > 100 µM | GI50 (K562): > 100 µM (inactive) | GI50 (786-0): > 100 µM (inactive) | GI50 (OVCAR-4): > 100 µM (inactive) | GI50 (TK-10): > 100 µM (inactive) | GI50 (SW-620): > 100 µM (inactive) | GI50 (HCT-116): > 100 µM (inactive) | GI50 (DLD-1): > 100 µM (inactive) | GI50 (NCI-H23): > 100 µM (inactive) | GI50 (OVCAR-3): > 100 µM (inactive) | GI50 (RXF 393): > 100 µM (inactive) | GI50 (SF-268): > 100 µM (inactive) | GI50 (HOP-92): > 100 µM (inactive) | GI50 (Malme-3M): > 100 µM (inactive) | GI50 (SNB-75): > 100 µM (inactive) | GI50 (A549): > 100 µM (inactive) | GI50 (XF498): > 100 µM (inactive) | GI50 (HCC 2998): > 100 µM (inactive) | GI50 (M19-MEL): > 100 µM (inactive) | GI50 (OVCAR-8): > 100 µM (inactive) | GI50 (SR): > 100 µM (inactive)
